The values below come from patent publication US20030166922A1, “Novel cephalosporin compounds and process for preparing the same” (priority 2000, published 2003).

Values after ≈ are worked out from the molar mass of the structure shown. Where two headings read alike, the source gives them in different places.

Common to all, as to test: Minimum Inhibitory Concentration (MIC), agar dilution, standard strains
In general terms: In agar dilution the substance is mixed into plates at graded concentrations.

For one test, the system named is S. aureus K311. Type of test: cell-based, Staphylococcus aureus. The settings on record: Table 2; Mueller-Hinton agar, 37° C., 20 hours. As to the method: (§1) Minimum Inhibitory Concentration (MIC)
(§2) The effectiveness of the compound according to the present invention was determined by obtaining Minimum Inhibitory Concentration (MIC) of the compounds prepared by the above Examples (I-1 to I-33) and vancomycin, which is the known compound having a potent activity against gram-positive strains, as the control drug against the standard strains. Specifically, Minimum Inhibitory Concentration was obtained by diluting the test material with a double dilution method, dispersing them in Mueller-Hinton agar medium, inoculating each of the test strain having 10^7 cfu (colny forming unit) in an amount of 2:1 to the medium and then incubating them at 37° C. for 20 hours.

In the next test the test system is S. aureus 77. The class given is cell-based, Staphylococcus aureus. The following applies: for MIC: read-out: Minimum Inhibitory Concentration (MIC), S. aureus 77. As to the method:
as §1, §2

The subject of another test is S. epidermidis R005. The class given is cell-based. The settings on record: for MIC: Staphylococcus epidermidis, read-out: Minimum Inhibitory Concentration (MIC), S. epidermidis R005. The protocol: as §1, §2
Test [1] concerns Staphylococcus aureus giorgio. Type of test: cell-based. The settings on record: for Minimum Inhibitory Concentration (MIC), S. aureus giorgio: Table 2, Mueller-Hinton agar, 37° C., 20 hours. As to the method: as §1, §2
In another test the test system is E. faecalis EFS004. The class given is cell-based. The settings on record: Table 2; Mueller-Hinton agar, 37° C., 20 hours. As to the method:
as §1, §2

Another test has as its system S. aureus 241. Type of test: cell-based, Staphylococcus aureus. The following applies: Staphylococcus aureus, 241, 20 h, read-out: Minimum Inhibitory Concentration (MIC), S. aureus 241. The protocol: as §1, §2
In the next test the test system is E. faecalis L239. Type of test: cell-based. The following applies: Enterococcus faecalis, L239, 20 h, read-out: Minimum Inhibitory Concentration (MIC), E. faecalis L239. As to the method:
as §1, §2

[2] abbreviates: Table 2, Mueller-Hinton agar, 37° C., 20 hours.
The mark [3] stands for this setting: Staphylococcus aureus, 77, Table 2, Mueller-Hinton agar, 37° C., 20 hours.
Where [4] appears, read: R005, Table 2, Mueller-Hinton agar, 37° C., 20 hours.

Regarding `Cn1c(N)n[n+]2c(SCSC3=C(C(=O)O)N4C(=O)[C@@H](NC(=O)CSc5cc(Cl)nc(Cl)c5)[C@H]4SC3)nc(N)cc12` [Example I-31, 2,7-diamino-5-[({[(6R,7R)-2-carboxy-7-({2-[(2,6-dichloro-4-pyridinyl)sulf-anyl]acetyl}amino)-8-oxo-5-thia-1-azabicyclo[4.2.0]oct-2-en-3-yl]sulfanyl}methyl)sulfan-yl]-1-methyl-1H-[1,2,4]triazolo[1,5-c]pyrimidin-4-ium], in the test with S. aureus K311, the “Minimum Inhibitory Concentration (MIC), S. aureus K311” value is recorded as 0.5 :g/ml. In addition, the “Minimum Inhibitory Concentration (MIC), S. aureus 77” value in the test on S. aureus 77 (setting [2]) was 0.25 :g/ml. Besides, the “Minimum Inhibitory Concentration (MIC), S. epidermidis R005” value with S. epidermidis R005 (setting [2]) is 0.25 :g/ml. The “Minimum Inhibitory Concentration (MIC), S. aureus giorgio” value in test [1] is on record as 0.031 :g/ml. For the same compound, the “Minimum Inhibitory Concentration (MIC), E. faecalis EFS004” value with E. faecalis EFS004 is listed as 0.5 :g/ml.

As for `O=C(CSc1cc(Cl)nc(Cl)c1)N[C@@H]1C(=O)N2C(C(=O)O)=C(SCSc3nc(O)cc(NCCO)n3)CS[C@H]12` [Example I-32, (6R,7R)-7-({2-[(2,6-dichloro-4-pyridinyl)sulfanyl]acetyl}amino)-3-{[({4-hy-droxy-6-[(2-hydroxyethyl)amino]-2-pyrimidinyl}sulfanyl)methyl]sulfanyl}-8-oxo-5-thia-1-azabicyclo[4. 2.0]oct-2-ene-2-carboxylic acid], in the test on S. aureus K311, the “Minimum Inhibitory Concentration (MIC), S. aureus K311” value is recorded as 1 :g/ml. In addition, the “Minimum Inhibitory Concentration (MIC), S. aureus 77” value in the test on S. aureus 77 (setting [2]) is 0.1 :g/ml. In the test with S. epidermidis R005 (setting [2]), the “Minimum Inhibitory Concentration (MIC), S. epidermidis R005” value is given as 1 :g/ml. The “Minimum Inhibitory Concentration (MIC), S. aureus giorgio” value in test [1] is recorded as 0.13 :g/ml. Also, in the test on E. faecalis EFS004, the “Minimum Inhibitory Concentration (MIC), E. faecalis EFS004” value is 1 :g/ml.

Consider `CN[C@H](CC(C)C)C(=O)N[C@H]1C(=O)N[C@@H](CC(N)=O)C(=O)N[C@H]2C(=O)N[C@H]3C(=O)N[C@H](C(=O)N[C@H](C(=O)O)c4cc(O)cc(O)c4-c4cc3ccc4O)[C@H](O)c3ccc(c(Cl)c3)Oc3cc2cc(c3O[C@@H]2O[C@H](CO)[C@@H](O)[C@H](O)[C@H]2O[C@H]2C[C@](C)(N)[C@H](O)[C@H](C)O2)Oc2ccc(cc2Cl)[C@H]1O` [Vancomycin, vancomycin, reference compound], for which the MIC was 2 µg/mL (≈ 1.38 µM) in the test on S. aureus 241; 1 µg/mL (≈ 0.69 µM) in the test on S. aureus 77 (Staphylococcus aureus, 77, 20 h); 1 µg/mL (≈ 0.69 µM) in the test with S. epidermidis R005 (R005, 20 h); 2 µg/mL (≈ 1.38 µM) in the test on E. faecalis L239; 1 µg/mL (≈ 0.69 µM) in test [1] (Staphylococcus aureus, 20 h, read-out: Minimum Inhibitory Concentration (MIC), Staphylococcus aureus giorgio). Moreover, the “Minimum Inhibitory Concentration (MIC), S. aureus K311” value in the test with S. aureus K311 is 2 :g/ml. For the same compound, the “Minimum Inhibitory Concentration (MIC), S. aureus 77” value in the test with S. aureus 77 (setting [2]) was 1 :g/ml. In addition, the “Minimum Inhibitory Concentration (MIC), S. epidermidis R005” value in the test with S. epidermidis R005 (setting [2]) is given as 1 :g/ml. For the same compound, the “Minimum Inhibitory Concentration (MIC), S. aureus giorgio” value in test [1] is 1 :g/ml. In addition, the “Minimum Inhibitory Concentration (MIC), E. faecalis EFS004” value in the test with E. faecalis EFS004 is 2 :g/ml.

Consider `C[n+]1c(SCSC2=C(C(=O)O)N3C(=O)[C@@H](NC(=O)CSc4cc(Cl)nc(Cl)c4)[C@H]3SC2)cc(N)nc1N` [Example I-33, 2,4-diamino-6-[({[(6R,7R)-2-carboxy-7-({2-[(2,6-dichloro-4-pyridinyl)sulf-anyl]acetyl}amino)-8-oxo-5-thia-1-azabicyclo[4.2.0]oct-2-en-3-yl]sulfanyl}methyl)sulfan-yl]-1-methylp yrimidin-1-ium], for which the “Minimum Inhibitory Concentration (MIC), S. aureus K311” value in the test on S. aureus K311 is listed as 1 :g/ml. The “Minimum Inhibitory Concentration (MIC), S. aureus 77” value with S. aureus 77 (setting [2]) is recorded as 0.25 :g/ml. The “Minimum Inhibitory Concentration (MIC), S. epidermidis R005” value with S. epidermidis R005 (setting [2]) is 0.25 :g/ml. Moreover, the “Minimum Inhibitory Concentration (MIC), S. aureus giorgio” value in test [1] was 0.031 :g/ml. Moreover, the “Minimum Inhibitory Concentration (MIC), E. faecalis EFS004” value in the test on E. faecalis EFS004 was 0.5 :g/ml.

As for `Nc1cc(SCSC2=C(C(=O)O)N3C(=O)[C@@H](NC(=O)CSc4cc(Cl)nc(Cl)c4)[C@H]3SC2)nc(N)n1` [Example I-24, (6R,7R)-3-({[(2,6-diamino-4-pyrimidinyl)sulfanyl]methyl}sulfanyl)-7-({2-[(2,6-dichloro-4-pyridinyl)sulfanyl]acetyl}amino)-8-oxo-5-thia-1-azabicyclo[4.2.0]oct-2-ene-2-carboxylic acid], the “Minimum Inhibitory Concentration (MIC), S. aureus K311” value in the test with S. aureus K311 is 0.5 :g/ml. Moreover, the MIC in the test with S. aureus 77 (setting [3]) and in the test with S. epidermidis R005 (setting [4]) was 0.25 µg/mL (≈ 0.412 µM) in each case. Further, the “Minimum Inhibitory Concentration (MIC), S. aureus giorgio” value in test [1] is 0.016 :g/ml. In the test on E. faecalis EFS004, the “Minimum Inhibitory Concentration (MIC), E. faecalis EFS004” value was 0.5 :g/ml.

With `O=C(CSc1cc(Cl)nc(Cl)c1)N[C@@H]1C(=O)N2C(C(=O)O)=C(SCSc3ncnc4[nH]ncc34)CS[C@H]12` [Example I-27, (6R,7R)-7-({2-[(2,6-dichloro-4-pyridinyl)sulfanyl]acetyl}amino)-8-oxo-3-{[(1H-pyrazolo[3,4-d]pyrimidin-4-yl-sulfanyl)methyl]sulfanyl}-5-thia-1-azabicyclo[4.2. 0]oct-2-ene-2-carboxylic acid], in the test with S. aureus K311, the “Minimum Inhibitory Concentration (MIC), S. aureus K311” value was 0.5 :g/ml. Further, the MIC in the test on S. aureus 77 (setting [3]) and with S. epidermidis R005 (setting [4]) was 0.25 µg/mL (≈ 0.405 µM) in each case. Further, the “Minimum Inhibitory Concentration (MIC), S. aureus giorgio” value in test [1] was 0.13 :g/ml. For the same compound, the “Minimum Inhibitory Concentration (MIC), E. faecalis EFS004” value in the test on E. faecalis EFS004 was 0.5 :g/ml.

On to `Nc1cc(N)nc(SCSC2=C(C(=O)O)N3C(=O)[C@@H](NC(=O)CSc4cc(Cl)nc(Cl)c4)[C@H]3SC2)n1` [Example I-25, (6R,7R)-3-({[(4,6-diamino-2-pyrimidinyl)sulfanyl]methyl}sulfanyl)-7-({2-[(2,6-dichloro-4-pyridinyl)sulfanyl]acetyl}amino)-8-oxo-5-thia-1-azabicyclo[4.2.0]oct-2-ene-2-carboxylic acid], for which the “Minimum Inhibitory Concentration (MIC), S. aureus K311” value in the test with S. aureus K311 is reported as 0.5 :g/ml. Besides, the MIC with S. aureus 77 (setting [3]) and with S. epidermidis R005 (setting [4]) was 0.25 µg/mL (≈ 0.412 µM) throughout. The “Minimum Inhibitory Concentration (MIC), S. aureus giorgio” value in test [1] is given as 0.016 :g/ml. Besides, in the test on E. faecalis EFS004, the “Minimum Inhibitory Concentration (MIC), E. faecalis EFS004” value is 0.5 :g/ml.

As for `Nc1nc(SCSC2=C(C(=O)O)N3C(=O)[C@@H](NC(=O)CSc4cc(Cl)nc(Cl)c4)[C@H]3SC2)nc2[nH]ncc12` [Example I-26, (6R,7R)-3-({[(4-amino-1H-pyrazolo[3 ,4-d]pyrimidin-6-yl)sulfanyl]methy-1}sulfanyl)-7-({2-[(2,6-dichloro-4-pyridinyl)sulfanyl]acetyl}amino)-8-oxo-5-thia-1-azabi-cyclo[4.2.0]oct-2-ene-2-carboxylic acid], in the test with S. aureus K311, the “Minimum Inhibitory Concentration (MIC), S. aureus K311” value is 0.5 :g/ml. Also, in the test on S. aureus 77 (setting [2]), the “Minimum Inhibitory Concentration (MIC), S. aureus 77” value is 0.25 :g/ml. In the test with S. epidermidis R005 (setting [2]), the “Minimum Inhibitory Concentration (MIC), S. epidermidis R005” value is given as 0.25 :g/ml. Moreover, the “Minimum Inhibitory Concentration (MIC), S. aureus giorgio” value in test [1] is 0.016 :g/ml. In addition, the “Minimum Inhibitory Concentration (MIC), E. faecalis EFS004” value in the test on E. faecalis EFS004 is 0.5 :g/ml.
